Laboratory results: PubChem BioAssay (NCI)
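1) Cells in 96-well plates. 2) Compound, 48 h, 5 concentrations. 3) Linear interpolation between surrounding doses. 4) Unreached endpoint = highest concentration. TGI: concentration producing complete growth inhibition.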

Experiments:
Assay in all cases: NCI-60 cell line screen, 48 h
U251 CNS = test system: U251 CNS
OVCAR-5 ovarian = test system: OVCAR-5 ovarian
MDA-MB-231 breast = test system: MDA-MB-231 breast
M14 melanoma = test system: M14 melanoma
A498 renal = test system: A498 renal
HCT-15 colon = test system: HCT-15 colon
MCF7 breast = test system: MCF7 breast
LOX IMVI melanoma = test system: LOX IMVI melanoma
SF-268 CNS = test system: SF-268 CNS
MDA-MB-435 = test system: MDA-MB-435
A549 NSCLC = test system: A549 NSCLC
SK-OV-3 ovarian = test system: SK-OV-3 ovarian
HOP-62 NSCLC = test system: HOP-62 NSCLC
SF-539 CNS = test system: SF-539 CNS
ACHN renal = test system: ACHN renal
KM12 colon = test system: KM12 colon
K-562 leukemia = test system: K-562 leukemia
SW-620 colon = test system: SW-620 colon
EKVX NSCLC = test system: EKVX NSCLC
MDA-N = test system: MDA-N
BT-549 breast = test system: BT-549 breast
MOLT-4 leukemia = test system: MOLT-4 leukemia
COLO 205 colon = test system: COLO 205 colon
SNB-19 CNS = test system: SNB-19 CNS
SK-MEL-2 melanoma = test system: SK-MEL-2 melanoma
NCI/ADR-RES ovarian = test system: NCI/ADR-RES ovarian
HOP-92 NSCLC = test system: HOP-92 NSCLC
SK-MEL-5 melanoma = test system: SK-MEL-5 melanoma
OVCAR-8 ovarian = test system: OVCAR-8 ovarian
NCI-H226 lung = test system: NCI-H226 lung
DU-145 prostate = test system: DU-145 prostate
RPMI-8226 leukemia = test system: RPMI-8226 leukemia
HCT-116 colon = test system: HCT-116 colon
NCI-H460 lung = test system: NCI-H460 lung
786-0 renal = test system: 786-0 renal
CAKI-1 renal = test system: CAKI-1 renal
OVCAR-3 ovarian = test system: OVCAR-3 ovarian
SK-MEL-28 melanoma = test system: SK-MEL-28 melanoma
TK-10 renal = test system: TK-10 renal
SN12C renal = test system: SN12C renal
HT29 colon = test system: HT29 colon
OVCAR-4 ovarian = test system: OVCAR-4 ovarian
UO-31 renal = test system: UO-31 renal
HS 578T breast = test system: HS 578T breast
NCI-H522 lung = test system: NCI-H522 lung
IGROV1 ovarian = test system: IGROV1 ovarian
SF-295 CNS = test system: SF-295 CNS
UACC-257 melanoma = test system: UACC-257 melanoma
UACC-62 melanoma = test system: UACC-62 melanoma
SNB-75 CNS = test system: SNB-75 CNS
MALME-3M melanoma = test system: MALME-3M melanoma
SR leukemia = test system: SR leukemia
NCI-H23 lung = test system: NCI-H23 lung
RXF 393 renal = test system: RXF 393 renal
PC-3 prostate = test system: PC-3 prostate
T-47D breast = test system: T-47D breast
CCRF-CEM leukemia = test system: CCRF-CEM leukemia
HCC-2998 colon = test system: HCC-2998 colon
HL-60(TB) leukemia = test system: HL-60(TB) leukemia

Measured: TGI

Cc1n[nH]c2ccccc2c1=O
> 100 µM: U251 CNS | OVCAR-5 ovarian | MDA-MB-231 breast | M14 melanoma | A498 renal | HCT-15 colon | MCF7 breast | LOX IMVI melanoma | SF-268 CNS | MDA-MB-435 | A549 NSCLC | SK-OV-3 ovarian | HOP-62 NSCLC | SF-539 CNS | ACHN renal | KM12 colon | K-562 leukemia | SW-620 colon | EKVX NSCLC | MDA-N | BT-549 breast | MOLT-4 leukemia | COLO 205 colon | SNB-19 CNS | SK-MEL-2 melanoma | NCI/ADR-RES ovarian | HOP-92 NSCLC | SK-MEL-5 melanoma | OVCAR-8 ovarian | NCI-H226 lung | DU-145 prostate | RPMI-8226 leukemia | HCT-116 colon | NCI-H460 lung | 786-0 renal | CAKI-1 renal | OVCAR-3 ovarian | SK-MEL-28 melanoma | TK-10 renal | SN12C renal | HT29 colon | OVCAR-4 ovarian | UO-31 renal | HS 578T breast | NCI-H522 lung | IGROV1 ovarian | SF-295 CNS | UACC-257 melanoma | UACC-62 melanoma | SNB-75 CNS | MALME-3M melanoma | SR leukemia | NCI-H23 lung | RXF 393 renal | PC-3 prostate | T-47D breast

CC(C)Cc1cnc(CC(C)C)c(=O)[nH]1
> 100 µM: U251 CNS | OVCAR-5 ovarian | MDA-MB-231 breast | M14 melanoma | A498 renal | HCT-15 colon | MCF7 breast | LOX IMVI melanoma | SF-268 CNS | MDA-MB-435 | A549 NSCLC | SK-OV-3 ovarian | HOP-62 NSCLC | ACHN renal | KM12 colon | K-562 leukemia | SW-620 colon | EKVX NSCLC | MDA-N | BT-549 breast | MOLT-4 leukemia | COLO 205 colon | SNB-19 CNS | SK-MEL-2 melanoma | HOP-92 NSCLC | SK-MEL-5 melanoma | OVCAR-8 ovarian | DU-145 prostate | CCRF-CEM leukemia | RPMI-8226 leukemia | HCT-116 colon | NCI-H460 lung | 786-0 renal | CAKI-1 renal | OVCAR-3 ovarian | SK-MEL-28 melanoma | TK-10 renal | SN12C renal | HT29 colon | OVCAR-4 ovarian | UO-31 renal | HS 578T breast | IGROV1 ovarian | SF-295 CNS | UACC-257 melanoma | UACC-62 melanoma | HCC-2998 colon | SNB-75 CNS | SR leukemia | NCI-H23 lung | RXF 393 renal | PC-3 prostate | T-47D breast

COc1ccc(CCNC(=O)Cc2ccccc2CO)cc1OC
> 100 µM: U251 CNS | HL-60(TB) leukemia | OVCAR-5 ovarian | MDA-MB-231 breast | M14 melanoma | A498 renal | HCT-15 colon | MCF7 breast | LOX IMVI melanoma | SF-268 CNS | MDA-MB-435 | A549 NSCLC | SK-OV-3 ovarian | HOP-62 NSCLC | SF-539 CNS | ACHN renal | KM12 colon | K-562 leukemia | SW-620 colon | EKVX NSCLC | MDA-N | BT-549 breast | MOLT-4 leukemia | COLO 205 colon | SK-MEL-2 melanoma | NCI/ADR-RES ovarian | HOP-92 NSCLC | SK-MEL-5 melanoma | OVCAR-8 ovarian | NCI-H226 lung | DU-145 prostate | CCRF-CEM leukemia | RPMI-8226 leukemia | HCT-116 colon | NCI-H460 lung | 786-0 renal | CAKI-1 renal | OVCAR-3 ovarian | SK-MEL-28 melanoma | TK-10 renal | SN12C renal | HT29 colon | OVCAR-4 ovarian | UO-31 renal | HS 578T breast | NCI-H522 lung | IGROV1 ovarian | SF-295 CNS | UACC-257 melanoma | UACC-62 melanoma | HCC-2998 colon | SNB-75 CNS | SR leukemia | NCI-H23 lung | RXF 393 renal | PC-3 prostate | T-47D breast

COc1cc2c(cc1O)C1Cc3ccc(OC)c(O)c3C[N+]1(C)CC2 (stereo unspecified)
> 100 µM: U251 CNS | HL-60(TB) leukemia | OVCAR-5 ovarian | MDA-MB-231 breast | M14 melanoma | A498 renal | HCT-15 colon | MCF7 breast | LOX IMVI melanoma | SF-268 CNS | MDA-MB-435 | A549 NSCLC | SK-OV-3 ovarian | HOP-62 NSCLC | SF-539 CNS | ACHN renal | KM12 colon | K-562 leukemia | SW-620 colon | EKVX NSCLC | MDA-N | BT-549 breast | MOLT-4 leukemia | COLO 205 colon | SNB-19 CNS | SK-MEL-2 melanoma | NCI/ADR-RES ovarian | HOP-92 NSCLC | SK-MEL-5 melanoma | OVCAR-8 ovarian | NCI-H226 lung | DU-145 prostate | CCRF-CEM leukemia | RPMI-8226 leukemia | HCT-116 colon | NCI-H460 lung | 786-0 renal | CAKI-1 renal | SK-MEL-28 melanoma | TK-10 renal | SN12C renal | HT29 colon | OVCAR-4 ovarian | UO-31 renal | HS 578T breast | IGROV1 ovarian | SF-295 CNS | UACC-62 melanoma | HCC-2998 colon | SNB-75 CNS | MALME-3M melanoma | NCI-H23 lung | RXF 393 renal | PC-3 prostate | T-47D breast
